From paper PMC6350255 (Journal of medicinal chemistry, 2018)
“Also recorded” adds a separate entry of the source.

Experiments:
[1] = test system: human β-cells (dispersed human pancreatic islets); format: cell-based; conditions: for human β-cell proliferation in words, dose response / overall: doses of 3–30 μM
[2] = test system: NFAT2-GFP nuclear translocation in R7T1 rat beta cell line; experiment: NFAT2 translocation assay; format: cell-based; conditions: 10 μM, 24 h

`COc1ccc2c(c1)[nH]c1c(Cl)nccc12` [1–5, 1-Chloro-7-methoxy-9H-β-carboline] was tested, and the “human β-cell proliferation in words, dose response / overall” value [1] was “comparable to that of harmine”.
With `COc1ccc2c(c1)[nH]c1c(C)nc(CO)cc12` [2–8, (1-Methyl-7-methoxy-9H-pyrido[3,4-b]indol-3-yl)methanol] the “human β-cell proliferation, Ki-67 immunolabeling” value ([1]; 10 μM, 96 h) was “comparable to that of harmine”, the “human β-cell proliferation in words, dose response / overall” value [1] was “excellent human β-cell proliferation; also recorded: caused proliferation in a dose-dependent manner; also recorded: superior human β-cell proliferation at a lower dose as compared to 2–2; also recorded: comparable to that of harmine” and the “NFAT2 translocation to nucleus” value [2] was “drove NFAT2 translocation”. The beta cell toxicity (human β-cells) was “did not cause toxicity”.
`COc1ccc2c(c1)[nH]c1c(CO)nccc12` [Compound 2–2, 1-Hydroxymethyl-7-methoxy-9H-β-carboline] was tested, and the “NFAT2 translocation to nucleus” value [2] was “drove NFAT2 translocation” and the beta cell toxicity (human β-cells) was “did not cause toxicity”.
For `COc1ccc2c(c1)[nH]c1c(C(C)=O)nccc12` [Compound 3–2, 1-Acetyl-7-methoxy-9H-β-carboline], the “human β-cell proliferation in words, dose response / overall” value [1] was “comparable to that of harmine”.
